Test results from patent US20220117938A1, “COMBINATON THERAPY WITH A DON PRODRUG AND AN IMMUNE CHECKPOINT INHIBITOR” (DRACEN PHARMACEUTICALS, INC., priority 2019, published 2022).

Experiments:
[1] = test system: CT26.WT tumors; assay: Anti-tumor efficacy of Compound 1 with and without anti-PD-1 in the CT26.WT murine colorectal model (Example 2B); format: in vivo, Mus musculus; conditions: for Tumor volume (mm^3), Mean ± SEM: n = 8; for ILS (%) / MST: endpoint tumor volume 2000 mm^3; for RTV at day 15 / T/C (%) / TGI (%) / Tumor Size (mm^3) at day 15, Mean ± SEM: day 15
Method: Female BALB/c mice were inoculated subcutaneously at right flank with CT26.WT cells for tumor development. Five days after tumor inoculation, 48 mice with tumor size ranging from 39-61 mm^3 (average tumor size 49 mm^3) were selected and assigned into 6 groups using stratified randomization with 8 mice per group based upon their tumor volumes. The treatments were started from the day of randomization (defined as D0), Group 1 was treated with Vehicle (Tween 80:Ethanol:Saline—5:5:90 v/v/v), s.c. q.d.×14, Group 2 was treated with anti-PD-1 10 mg/kg i.p. q4d×4, Group 3 was treated with Compound 1 3 mg/kg s.c. q.d.×5D followed by 1 mg/kg s.c. q.d.×9D, Group 4 was treated with Compound 1 3 mg/kg s.c. q.d.×5D followed by 1 mg/kg s.c. q.d.×9D+anti-PD-1 10 mg/kg i.p. q4d×4, Group 5 was treated with Compound 1 1 mg/kg s.c. q.d.×14D and Group 6 was treated with Compound 1 1 mg/kg s.c. q.d.×14D+anti-PD-1 10 mg/kg i.p. q4d×4. The tumor sizes were measured three times per week during the treatment. The entire study was terminated on D64 after start of the treatment.
Animal Species: Mus musculus; Strain: BALB/c; Age: 6-8 weeks; Sex: female; Body weight (at treatment start): 20-24 g.
The CT26.WT tumor cells (ATCC, Cat #CRL-2638™) were maintained in vitro as a monolayer culture in RPMI 1640 medium supplemented with 10% heat inactivated fetal bovine serum, 100 U/mL penicillin and 100 μg/mL streptomycin, and L-glutamine (2 mM) at 37° C. in an atmosphere of 5% CO2 in air. The tumor cells were routinely subcultured twice weekly by trypsin-EDTA treatment. The cells growing to a confluency around 70%-80% were harvested and counted for tumor inoculation. The cultured CT26.WT cells were harvested, re-suspended in base medium with viability>90%. Each mouse was inoculated subcutaneously at the right flank with 3×10^5 in 0.05 ml base medium for tumor development.
The treatments were started on day 5 after tumor inoculation when the tumor size reached 39-61 mm^3 (average tumor size 49 mm^3). Each group consisted of 8 tumor bearing mice. The testing article was administrated at the dosing volume indicated to the mice according to the predetermined regimen as shown Table 2B-1. Testing article formulations were prepared according to standard procedures. Details regarding tumor measurements and endpoints, and statistical analysis are provided in EXAMPLE 3.
Tumor sizes were measured three times a week in two dimensions using a caliper, and the volume expressed in mm^3 using the formula: V=0.5 a×b^2 where a and b are the long and short diameters of the tumor, respectively. The tumor sizes were then used for the calculations of both tumor growth inhibition (TGI) and T/C values.
TGI is calculated for each group using the formula: […]
TVTreatment_DayN is the average tumor volume of a treatment group on a given day, TVTreatment_Day0 is the average tumor volume of the treatment group on the first day of treatment, TVVehicle_DayN is the average tumor volume of the vehicle control group on a given day, and TVVehicle_Day0 is the average tumor volume of the vehicle group on the first day of treatment.
The T/C value (in percent) is an indication of antitumor effectiveness, T/C (%)=RTVTreatment/RTVControl×100% (RTVTreatment: the mean RTV of the treatment group; RTVControl: the mean RTV of the vehicle treated group). RTV (relative tumor volume)=TVDayN/TVDay0. TVDayN and TVDay0 is the tumor volume on day N and Day 0 respectively. T/C (%)≤42% is considered as significant antitumor activity and <10% is considered as highly significant antitumor activity by the National Cancer Institute criteria.
Animal survival curve: When an individual animal reached to the termination endpoint (TV>2000 mm^3), the mouse was euthanized. The time from treatment initiation to the termination was deemed as its survival time. Survival curve was plotted by Kaplan-Meier method. Median survival time (MST) was calculated for each group. Increase of life span (ILS) was calculated according to the following formula: […]

[2] = test system: A549 tumors; assay: Anti-tumor efficacy of Compound 1 in the A549 xenograft model (Example 11); format: in vivo, mice
Method: Female BALB/c nude mice were inoculated subcutaneously in the right flank with A549 cells for tumor development. Eight days after tumor inoculation, mice with tumor sizes ranging from 100-200 mm^3 (average tumor size 156 mm^3) were selected and assigned into groups using stratified randomization with 8 mice per group based upon their tumor volumes. The treatments were started from the day of randomization (defined as D0), Group 1 was treated with Vehicle control, 10 ml/kg, IP, bid×21; Group 4 was treated with Compound 1; 1.4 mg/kg, SC, 5d ON, 2 d OFF×3 cycles; and Group 5 was treated with Compound 1, 3.3 mg/kg, IV, tiw, (Fri, Sun, Tues), ×3 cycles. The tumor sizes were measured two times per week during the treatment. The entire study was terminated on D21 after start of the treatment. All treatments were well-tolerated without any adverse effects or significant body weight loss.

[3] = Group 4, 1.4 mg/kg SC 5 d ON 2 d OFF x3 cycles
[4] = Group 4, 1.4 mg/kg SC 5 d ON 2 d OFF x3 cycles, day 21
[5] = Group 5, 3.3 mg/kg IV tiw x3 cycles
[6] = Group 5, 3.3 mg/kg IV tiw x3 cycles, day 21

CC(=O)N[C@@H](Cc1c[nH]c2ccccc12)C(=O)N[C@@H](CCC(=O)C=[N+]=[N-])C(=O)OC(C)C [Compound 1, Isopropyl (S)-2-((S)-2-acetamido-3-(1H-indol-3-yl)propanamido)-6-diazo-5-oxohexanoate]
Tumor volume (mm^3), Mean ± SEM ([1]; 1 mg/kg qdx14 s.c., Day 0): 49 ± 2 mm^3 | Tumor volume (mm^3), Mean ± SEM ([1]; 1 mg/kg qdx14 s.c., Day 3): 68 ± 6 mm^3 | Tumor volume (mm^3), Mean ± SEM ([1]; 1 mg/kg qdx14 s.c., Day 6): 92 ± 8 mm^3 | Tumor volume (mm^3), Mean ± SEM ([1]; 1 mg/kg qdx14 s.c., Day 8): 104 ± 9 mm^3 | Tumor volume (mm^3), Mean ± SEM ([1]; 1 mg/kg qdx14 s.c., Day 10): 112 ± 9 mm^3 | Tumor volume (mm^3), Mean ± SEM ([1]; 1 mg/kg qdx14 s.c., Day 13): 156 ± 18 mm^3 | Tumor volume (mm^3), Mean ± SEM ([1]; 1 mg/kg qdx14 s.c., Day 15): 186 ± 21 mm^3 | Tumor volume (mm^3), Mean ± SEM ([1]; 3 mg/kg qdx5 then 1 mg/kg qdx9 s.c., Day 0): 49 ± 2 mm^3 | Tumor volume (mm^3), Mean ± SEM ([1]; 3 mg/kg qdx5 then 1 mg/kg qdx9 s.c., Day 3): 54 ± 2 mm^3 | Tumor volume (mm^3), Mean ± SEM ([1]; 3 mg/kg qdx5 then 1 mg/kg qdx9 s.c., Day 6): 65 ± 3 mm^3 | Tumor volume (mm^3), Mean ± SEM ([1]; 3 mg/kg qdx5 then 1 mg/kg qdx9 s.c., Day 8): 139 ± 14 mm^3 | Tumor volume (mm^3), Mean ± SEM ([1]; 3 mg/kg qdx5 then 1 mg/kg qdx9 s.c., Day 10): 180 ± 20 mm^3 | Tumor volume (mm^3), Mean ± SEM ([1]; 3 mg/kg qdx5 then 1 mg/kg qdx9 s.c., Day 13): 224 ± 25 mm^3 | Tumor volume (mm^3), Mean ± SEM ([1]; 3 mg/kg qdx5 then 1 mg/kg qdx9 s.c., Day 15): 333 ± 41 mm^3 | ILS (%) ([1]; Compound 1 1 mg/kg): 40% | MST ([1]; Compound 1 1 mg/kg): 28 days | ILS (%) ([1]; Compound 1 3/1 mg/kg): 35% | MST ([1]; Compound 1 3/1 mg/kg): 27 days | RTV at day 15 ([1]; Cpd. 1 1 mg/kg): 3.84 ± 0.43 | T/C (%) ([1]; Cpd. 1 1 mg/kg): 15.23% | TGI (%) ([1]; Cpd. 1 1 mg/kg): 188.18% | Tumor Size (mm^3) at day 15, Mean ± SEM ([1]; Cpd. 1 1 mg/kg): 186 ± 21 mm^3 | RTV at day 15 ([1]; Cpd. 1 3/1 mg/kg): 4.79 ± 0.69 | T/C (%) ([1]; Cpd. 1 3/1 mg/kg): 19.00% | TGI (%) ([1]; Cpd. 1 3/1 mg/kg): 84.90% | Tumor Size (mm^3) at day 15, Mean ± SEM ([1]; Cpd. 1 3/1 mg/kg): 224 ± 25 mm^3 | RTV at day 21 [2, 3]: 8.61 ± 1.30 | Tumor Size at day 21 [2, 3]: 1300 ± 161 mm^3 | Tumor volume ([2]; Group 4, 1.4 mg/kg SC 5 d ON 2 d OFF x3 cycles, day 0): 155 ± 10 mm^3 | Tumor volume ([2]; Group 4, 1.4 mg/kg SC 5 d ON 2 d OFF x3 cycles, day 4): 187 ± 12 mm^3 | Tumor volume ([2]; Group 4, 1.4 mg/kg SC 5 d ON 2 d OFF x3 cycles, day 7): 273 ± 25 mm^3 | Tumor volume ([2]; Group 4, 1.4 mg/kg SC 5 d ON 2 d OFF x3 cycles, day 11): 500 ± 59 mm^3 | Tumor volume ([2]; Group 4, 1.4 mg/kg SC 5 d ON 2 d OFF x3 cycles, day 14): 658 ± 92 mm^3 | Tumor volume ([2]; Group 4, 1.4 mg/kg SC 5 d ON 2 d OFF x3 cycles, day 18): 1050 ± 112 mm^3 | T/C [2, 4]: 75.88% | TGI [2, 4]: 28.57% | Tumor volume [2, 4]: 1300 ± 161 mm^3 | RTV at day 21 [2, 5]: 9.55 ± 1.16 | Tumor Size at day 21 [2, 5]: 1453 ± 171 mm^3 | Tumor volume ([2]; Group 5, 3.3 mg/kg IV tiw x3 cycles, day 0): 156 ± 10 mm^3 | Tumor volume ([2]; Group 5, 3.3 mg/kg IV tiw x3 cycles, day 4): 180 ± 12 mm^3 | Tumor volume ([2]; Group 5, 3.3 mg/kg IV tiw x3 cycles, day 7): 268 ± 21 mm^3 | Tumor volume ([2]; Group 5, 3.3 mg/kg IV tiw x3 cycles, day 11): 473 ± 39 mm^3 | Tumor volume ([2]; Group 5, 3.3 mg/kg IV tiw x3 cycles, day 14): 647 ± 66 mm^3 | Tumor volume ([2]; Group 5, 3.3 mg/kg IV tiw x3 cycles, day 18): 1107 ± 119 mm^3 | T/C [2, 6]: 84.12% | TGI [2, 6]: 19.04% | Tumor volume [2, 6]: 1453 ± 171 mm^3
